Experiments:
[1] = target: T1, Human recombinant USP1/UAF1 (Homo sapiens, UniProt O94782); test: Enzymatic assay: USP1/UAF1 deubiquitination of Ubiquitin Rhodamine 110 (kinetic fluorescence); type: biochemical; settings: 2 nM USP1/UAF1, 15 min preincubation at RT, HEPES pH 8.0, 500 nM Ubiquitin Rhodamine 110
T1 construct: purchased R & D E-568-050; host or cells: baculovirus infected Sf21 cells
Protocol: Example A1: Enzymatic Assay
Human recombinant USP1/UAF1 expressed in baculovirus infected Sf21 cells were used (R & D, E-568-050). Test compound and/or vehicle was incubated with 2 nM of USP1/UAF1 in modified HEPES buffer pH 8.0 for 15 minutes at RT. The reaction was initiated by addition of 500 nM of Ubiquitin Rhodamine 110 (R & D, U-555-050) for kinetic reading. Slope change of fluorescence intensity was read spectrofluorimetrically at 485 nm/535 nm. Dose response of test compounds or reference compound ML-323 was analyzed by nonlinear regression of GraphPad prism software.

MDA-MB-436 cells = test: MDA-MB-436 breast cancer cell proliferation assay (CellTiter-Glo); type: cell-based; settings: Homo sapiens, 168 h, 7 days, 37° C.
Protocol: Example A2: MDA-MB-436 Breast Cancer Cell Culture
MDA-MB-436 cells were grown in Leibovitz's L-15 medium with 10 μg/ml insulin, 16 μg/ml glutathione, 10% FBS. Cells were passaged at subconfluence after trypsinization and maintained in incubators at 37° C. in a humidified atmosphere with 5% CO2.
Example A3: MDA-MB-436 Breast Cancer Cell Proliferation Assay
Cell proliferation was determined using CellTiter-Glo® Luminescent Cell Viability Assay (Promega, #G7573). MDA-MB-436 cells were seeded in 384-well plates and allowed to attach for 24 h. Compounds were added into 384-well plate by ECHO, and incubated at 37° C. in a humidified atmosphere with 5% CO2. After 7 days, CellTiter-Glo® was added into 384 well plates, contents were mixed on an orbital shaker at 400 g for 2 min before centrifuging the plate for 2 min at 1000 rpm. After incubation at RT for 30 min, luminescence was read on envision.

T1 sequence (O94782 whole entry): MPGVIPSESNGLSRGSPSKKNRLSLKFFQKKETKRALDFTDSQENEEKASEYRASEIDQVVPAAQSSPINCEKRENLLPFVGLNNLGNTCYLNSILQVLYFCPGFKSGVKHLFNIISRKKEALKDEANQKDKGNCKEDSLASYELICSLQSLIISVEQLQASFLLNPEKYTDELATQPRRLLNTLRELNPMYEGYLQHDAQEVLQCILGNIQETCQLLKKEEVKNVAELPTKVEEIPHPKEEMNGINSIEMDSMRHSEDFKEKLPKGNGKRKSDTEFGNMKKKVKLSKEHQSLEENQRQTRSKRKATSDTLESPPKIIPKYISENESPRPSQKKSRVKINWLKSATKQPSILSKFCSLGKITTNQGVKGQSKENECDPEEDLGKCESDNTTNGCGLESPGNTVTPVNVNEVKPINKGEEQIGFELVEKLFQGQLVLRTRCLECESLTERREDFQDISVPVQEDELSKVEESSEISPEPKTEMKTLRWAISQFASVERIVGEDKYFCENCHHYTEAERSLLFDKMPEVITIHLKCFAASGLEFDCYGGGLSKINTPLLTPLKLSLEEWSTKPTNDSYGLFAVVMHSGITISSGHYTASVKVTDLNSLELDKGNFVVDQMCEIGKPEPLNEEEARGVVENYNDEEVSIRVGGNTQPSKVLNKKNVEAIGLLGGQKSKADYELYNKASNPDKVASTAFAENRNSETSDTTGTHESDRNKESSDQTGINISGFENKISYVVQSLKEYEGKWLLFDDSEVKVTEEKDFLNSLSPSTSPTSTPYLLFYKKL
T1 sequence (Q8TAF3 whole entry partner): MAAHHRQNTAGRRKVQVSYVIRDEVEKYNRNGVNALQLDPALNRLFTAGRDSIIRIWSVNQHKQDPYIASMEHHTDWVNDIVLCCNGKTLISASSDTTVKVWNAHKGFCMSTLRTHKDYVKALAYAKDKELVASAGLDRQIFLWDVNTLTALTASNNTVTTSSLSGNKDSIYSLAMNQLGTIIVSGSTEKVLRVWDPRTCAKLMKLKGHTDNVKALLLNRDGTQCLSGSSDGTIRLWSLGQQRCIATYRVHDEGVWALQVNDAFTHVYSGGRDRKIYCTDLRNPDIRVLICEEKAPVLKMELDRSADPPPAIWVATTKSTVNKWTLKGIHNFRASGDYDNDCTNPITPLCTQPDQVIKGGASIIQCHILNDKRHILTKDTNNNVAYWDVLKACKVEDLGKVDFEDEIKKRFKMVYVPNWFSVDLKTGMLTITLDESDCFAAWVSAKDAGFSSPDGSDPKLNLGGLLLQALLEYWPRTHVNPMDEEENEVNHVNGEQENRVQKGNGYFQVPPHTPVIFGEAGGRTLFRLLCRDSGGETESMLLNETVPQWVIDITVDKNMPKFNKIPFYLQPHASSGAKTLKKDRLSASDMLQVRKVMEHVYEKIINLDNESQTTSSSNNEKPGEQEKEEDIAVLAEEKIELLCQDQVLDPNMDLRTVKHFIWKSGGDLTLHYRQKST

SMILES | IC50 [1] [nM] | IC50 (MDA-MB-436 cells) [nM]
COc1ncnc(C2CC2)c1-n1nc(C(F)(F)F)c2c1CN(c1ccc(-c3nc(C(F)(F)F)cn3C)cn1)CC2 [Compound 23, 1-(4-cyclopropyl-6-methoxypyrimidin-5-yl)-6-(5-(1-methyl-4-(trifluoromethyl)-1H-imidazol-2-yl)pyridin-2-yl)-3-(trifluoromethyl)-4,5,6,7-tetrahydro-1H-pyrazolo[3,4-c]pyridine] | 50 to 1000 | 50 to 1000
Cc1nn(-c2c(OC(F)F)ncnc2C2CC2)c2c1CCN(c1ccc(-c3nc(C(F)(F)F)cn3C)cn1)C2 [Compound 24, 1-(4-cyclopropyl-6-(difluoromethoxy)pyrimidin-5-yl)-3-methyl-6-(5-(1-methyl-4-(trifluoromethyl)-1H-imidazol-2-yl)pyridin-2-yl)-4,5,6,7-tetrahydro-1H-pyrazolo[3,4-c]pyridine] | 50 to 1000 | 50 to 1000
COc1ncnc(C2CC2)c1-n1nc(C)c2c1CN(c1ccc(-c3nc(C(F)(F)F)cn3C)c(F)n1)CC2 [Compound 25, 1-(4-cyclopropyl-6-methoxypyrimidin-5-yl)-6-(6-fluoro-5-(1-methyl-4-(trifluoromethyl)-1H-imidazol-2-yl)pyridin-2-yl)-3-methyl-4,5,6,7-tetrahydro-1H-pyrazolo[3,4-c]pyridine] | < 50 | < 50
CC(C)c1ncccc1-c1nccc2c1CC(c1ccc(-c3nc(C(F)(F)F)cn3C)cc1)C2 (centres unmarked) [Compound 26, 1-(2-isopropylpyridin-3-yl)-6-(4-(1-methyl-4-(trifluoromethyl)-1H-imidazol-2-yl)phenyl)-6,7-dihydro-5H-cyclopenta[c]pyridine] | < 50 | 50 to 1000
Cc1cnn(C(C)C)c1-n1nc(C)c2c1CN(c1ccc(-c3nc(C(F)(F)F)cn3C)cn1)CC2 [Compound 27, 1-(1-isopropyl-4-methyl-1H-pyrazol-5-yl)-3-methyl-6-(5-(1-methyl-4-(trifluoromethyl)-1H-imidazol-2-yl)pyridin-2-yl)-4,5,6,7-tetrahydro-1H-pyrazolo[3,4-c]pyridine] | < 50 | < 50
COc1ncnc(C2CC2)c1-n1nc(Cl)c2c1CN(c1ccc(-c3nc(C(F)(F)F)cn3C)cn1)CC2 [Compound 28, 3-chloro-1-(4-cyclopropyl-6-methoxypyrimidin-5-yl)-6-(5-(1-methyl-4-(trifluoromethyl)-1H-imidazol-2-yl)pyridin-2-yl)-4,5,6,7-tetrahydro-1H-pyrazolo[3,4-c]pyridine] | < 50 | < 50
CCn1cc(C(F)(F)F)nc1-c1cnc(N2CCc3c(C)nn(-c4c(C)cnn4C(C)C)c3C2)cn1 [Compound 29, 6-(5-(1-ethyl-4-(trifluoromethyl)-1H-imidazol-2-yl)pyrazin-2-yl)-1-(1-isopropyl-4-methyl-1H-pyrazol-5-yl)-3-methyl-4,5,6,7-tetrahydro-1H-pyrazolo[3,4-c]pyridine] | < 50 | < 50
Cc1cnn(C(C)C)c1-n1nc(C)c2c1CN(c1ccc(-c3nc(C(F)(F)F)cn3C)c(F)c1)CC2 [Compound 30, 6-(3-fluoro-4-(1-methyl-4-(trifluoromethyl)-1H-imidazol-2-yl)phenyl)-1-(1-isopropyl-4-methyl-1H-pyrazol-5-yl)-3-methyl-4,5,6,7-tetrahydro-1H-pyrazolo[3,4-c]pyridine] | < 50 | < 50
COc1ncnc(C2CC2)c1-c1nccc2c1CC(c1ccc(-c3nc(C(F)(F)F)cn3C)cn1)C2 (centres unmarked) [Compound 31, 1-(4-cyclopropyl-6-methoxypyrimidin-5-yl)-6-(5-(1-methyl-4-(trifluoromethyl)-1H-imidazol-2-yl)pyridin-2-yl)-6,7-dihydro-5H-cyclopenta[c]pyridine] | 50 to 1000 | 1000 to 10000
CCn1cc(C(F)(F)F)nc1-c1cnc(N2CCc3c(C)nn(-c4c(OC)ncnc4C4CC4)c3C2)cn1 [Compound 32, 1-(4-cyclopropyl-6-methoxypyrimidin-5-yl)-6-(5-(1-ethyl-4-(trifluoromethyl)-1H-imidazol-2-yl)pyrazin-2-yl)-3-methyl-4,5,6,7-tetrahydro-1H-pyrazolo[3,4-c]pyridine] | < 50 | 50 to 1000
